In publication PMC8400257, “2-Phenoxy-3-Trichloromethylquinoxalines Are Antiplasmodial Derivatives with Activity against the Apicoplast of Plasmodium falciparum” (Pharmaceuticals, 2021):
Entries after “also recorded” stand apart in the source; their conditions may differ.

System: P. falciparum (NF135 strain) hepatic exoerythrocytic forms
Assay: Liver stage development in infected primary human hepatocytes
Assay type: cell-based, Plasmodium falciparum
Experimental: The effect of (3i) on the hepatic stage of P. falciparum was next studied in order to know if (3i) was active against another stage of P. falciparum cycle. Cryopreserved primary human hepatocytes were infected with 30,000 freshly extracted P. falciparum sporozoites and simultaneously treated with a dose range (0.9–30 µM) of (3i). Atovaquone (ATQ) was used as a positive parasite-killing control at 25 nM.
P. falciparum (NF135 strain) sporozoites were isolated by dissection of the salivary glands of infected A. stephensi 14–21 days after an infective blood meal (Department of medical microbiology, University Medical Centre, St Radboud, Nijmegen Netherland). All infected salivary glands were removed by hand dissection, crushed in a potter for sporozoites isolation, and filtrated through a 40 μm filter to remove mosquito debris (Cell Strainer, BD BioSciences, Franklin Lakes, NJ, USA). The sporozoites were counted using a disposable Glasstic microscope slide (KOVA, Garden Grove, CA, USA).
One day before hepatocyte thawing, 96-well plates were coated by a Corning®® collagen solution (50 µg/mL rat tail type I collagen in 0.02N acid acetic) over night at room temperature. The next day, the wells were washed twice by PBS solution. Cryopreserved primary human hepatocytes (LONZA, Basel, Swiss) were seeded in 96-well plates with a pre-determined seeding dose that gave a single dense layer of attached hepatocytes. Four days post-seeding, each plate well was infected with 30,000 freshly extracted Plasmodium falciparum sporozoites. […]
Hepatocyte cultures were fixed with 4% paraformaldehyde solution (PFA, Invitrogen) for 10 min. […] Images were analyzed and prepared with ImageJ software. Apicoplast morphology was observed and quantified by eye under a confocal microscope.
Upon immunostaining of parasites, the study plates were scanned using a CellInsight high-content screening platform equipped with the Studio HCS software (Thermo Fisher Scientific, Waltham, MA, USA). […] The number of host hepatocyte nuclei per well was counted by the system as a measure of toxicity of 3i towards the liver cells. […]

Which “Effect on exoerythrocytic forms (EEF or schizont) size and numbers” value (3i 0.9-30 µM, ATQ 25 nM, 6 or 12 days post-infection) does the source give for `O=[N+]([O-])c1ccc(Oc2nc3ccccc3nc2C(Cl)(Cl)Cl)cc1` [3i, 2-(4-Nitrophenoxy)-3-trichloromethylquinoxaline] here?
Its value is “not observe a significant effect on parasite growth; also recorded: no effect”.

What about the “Effect on the apicoplast in the hepatic stage” value (up to 30 µM, day 6 post-infection) of the same compound?
Its value is “quite not affected”.
